Our source for the GI50 and inhibition values is patent US8846704B2, “Thiopyrimidine-based compounds and uses thereof” (YM Biosciences Austraila Pty Ltd, priority 2007, dated 2014).

Experiment [1] concerns the target T1, BaF3 TELJAK3 cells (Homo sapiens, UniProt P52333).
T1 construct: fused on or other part: TEL (ETV6) N-terminal part, coding nucleotides 1-487, serves as the oligomerising partner; It is fused through a Sal I site to the JAK3 kinase domain and expressed from pTRE2 in BaF3 cells bearing pTET-off; P41212 (Transcription factor ETV6)
T1 sequence (P52333 1-1124): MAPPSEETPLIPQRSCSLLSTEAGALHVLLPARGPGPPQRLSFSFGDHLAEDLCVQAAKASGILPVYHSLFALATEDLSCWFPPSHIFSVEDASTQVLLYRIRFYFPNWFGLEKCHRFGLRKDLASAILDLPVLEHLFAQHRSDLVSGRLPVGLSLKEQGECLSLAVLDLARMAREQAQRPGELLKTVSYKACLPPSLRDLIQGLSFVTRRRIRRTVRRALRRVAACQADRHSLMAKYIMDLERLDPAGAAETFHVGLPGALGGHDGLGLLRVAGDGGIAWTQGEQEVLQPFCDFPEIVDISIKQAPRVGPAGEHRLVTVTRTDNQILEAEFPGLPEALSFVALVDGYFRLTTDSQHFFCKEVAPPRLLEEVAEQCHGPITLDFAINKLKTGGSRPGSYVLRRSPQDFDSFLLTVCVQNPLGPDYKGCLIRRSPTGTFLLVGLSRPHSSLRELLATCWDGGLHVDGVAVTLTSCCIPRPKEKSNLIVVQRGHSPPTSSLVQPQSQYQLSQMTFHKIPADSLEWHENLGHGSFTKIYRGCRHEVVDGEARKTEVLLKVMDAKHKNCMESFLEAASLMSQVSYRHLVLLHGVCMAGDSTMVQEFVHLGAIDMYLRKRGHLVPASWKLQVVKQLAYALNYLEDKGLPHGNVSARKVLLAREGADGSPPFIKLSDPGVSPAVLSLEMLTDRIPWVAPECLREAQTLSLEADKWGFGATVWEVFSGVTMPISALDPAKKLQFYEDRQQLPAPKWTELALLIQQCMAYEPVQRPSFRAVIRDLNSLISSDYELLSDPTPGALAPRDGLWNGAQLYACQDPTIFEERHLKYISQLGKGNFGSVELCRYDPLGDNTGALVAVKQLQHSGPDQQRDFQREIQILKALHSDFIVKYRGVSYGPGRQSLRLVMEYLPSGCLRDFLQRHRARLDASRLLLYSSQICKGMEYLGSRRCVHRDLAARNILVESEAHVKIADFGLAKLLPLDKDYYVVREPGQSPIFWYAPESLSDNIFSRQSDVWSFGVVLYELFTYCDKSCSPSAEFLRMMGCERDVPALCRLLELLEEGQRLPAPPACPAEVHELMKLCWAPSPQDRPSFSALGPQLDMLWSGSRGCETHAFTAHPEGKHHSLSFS
Description: Cellular screening, BaF3 TEL:JAK3 cells, Alamar Blue. In kind it is cell-based. Particulars: 40 hr, read-out: BafT_J3 IC50_nM. The method, boiled down:
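BaF3 cells carrying pTET-off and a TEL–JAK3 kinase-domain fusion, selected for growth-factor independence, were grown in DMEM with 10% Tet-approved FBS without WEHI 3B medium. Cells were exposed to compounds for 40 h at 37 °C, 5% CO2. Viability was read with Alamar Blue (4–6 h) at 544 nm.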

For experiment [2], the target named is T2, BTK(h) (Homo sapiens, UniProt Q06187).
T2 construct: purchased Upstate Biotechnology (Dundee, UK), KinaseProfiler service
T2 sequence (Q06187 whole entry): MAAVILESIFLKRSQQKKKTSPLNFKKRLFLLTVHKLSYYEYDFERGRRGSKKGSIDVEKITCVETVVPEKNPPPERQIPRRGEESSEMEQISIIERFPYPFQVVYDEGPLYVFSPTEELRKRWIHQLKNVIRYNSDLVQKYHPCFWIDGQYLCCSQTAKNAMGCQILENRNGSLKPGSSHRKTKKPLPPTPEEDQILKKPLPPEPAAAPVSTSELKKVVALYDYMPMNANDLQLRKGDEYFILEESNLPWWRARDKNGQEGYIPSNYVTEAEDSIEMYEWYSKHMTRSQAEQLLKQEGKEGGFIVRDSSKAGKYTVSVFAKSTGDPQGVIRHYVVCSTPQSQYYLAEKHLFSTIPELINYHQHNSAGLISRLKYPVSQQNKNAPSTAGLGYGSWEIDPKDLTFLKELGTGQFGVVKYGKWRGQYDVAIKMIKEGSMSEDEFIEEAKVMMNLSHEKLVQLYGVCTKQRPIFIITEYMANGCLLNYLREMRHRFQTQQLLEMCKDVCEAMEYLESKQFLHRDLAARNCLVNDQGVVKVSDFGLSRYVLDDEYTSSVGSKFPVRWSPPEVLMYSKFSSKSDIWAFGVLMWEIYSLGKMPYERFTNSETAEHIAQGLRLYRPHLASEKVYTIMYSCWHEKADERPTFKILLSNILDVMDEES
The experiment can be described thus: Upstate KinaseProfiler enzyme assay, BTK. The format is biochemical. Conditions: 500 nM compound; read-out: Percent inhibition at 500 nM BTK(h). The method, boiled down: (§1)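 Contract enzyme profiling under a general kinase protocol. Each kinase was pre-diluted to a 10× working concentration in 20 mM MOPS pH 7.0 with 1 mM EDTA, 0.1% β-mercaptoethanol, 0.01% Brij-35, 5% glycerol and 1 mg/ml BSA before addition. Substrates were prepared as working stocks in de-ionised water.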

Experiment [3] has as its target T3, KDR(h) (Homo sapiens, UniProt P35968).
T3 construct: purchased Upstate Biotechnology (Dundee, UK), KinaseProfiler service
Description: Upstate KinaseProfiler enzyme assay, KDR. The format is biochemical. Conditions: 500 nM compound; read-out: Percent inhibition at 500 nM KDR(h). The method, boiled down: as §1

What is called inhibition is the change of the read-out against control, counted positive when it falls.

Structures are written as SMILES. Some results are limits rather than exact numbers.

T3 sequence (P35968 20-1356): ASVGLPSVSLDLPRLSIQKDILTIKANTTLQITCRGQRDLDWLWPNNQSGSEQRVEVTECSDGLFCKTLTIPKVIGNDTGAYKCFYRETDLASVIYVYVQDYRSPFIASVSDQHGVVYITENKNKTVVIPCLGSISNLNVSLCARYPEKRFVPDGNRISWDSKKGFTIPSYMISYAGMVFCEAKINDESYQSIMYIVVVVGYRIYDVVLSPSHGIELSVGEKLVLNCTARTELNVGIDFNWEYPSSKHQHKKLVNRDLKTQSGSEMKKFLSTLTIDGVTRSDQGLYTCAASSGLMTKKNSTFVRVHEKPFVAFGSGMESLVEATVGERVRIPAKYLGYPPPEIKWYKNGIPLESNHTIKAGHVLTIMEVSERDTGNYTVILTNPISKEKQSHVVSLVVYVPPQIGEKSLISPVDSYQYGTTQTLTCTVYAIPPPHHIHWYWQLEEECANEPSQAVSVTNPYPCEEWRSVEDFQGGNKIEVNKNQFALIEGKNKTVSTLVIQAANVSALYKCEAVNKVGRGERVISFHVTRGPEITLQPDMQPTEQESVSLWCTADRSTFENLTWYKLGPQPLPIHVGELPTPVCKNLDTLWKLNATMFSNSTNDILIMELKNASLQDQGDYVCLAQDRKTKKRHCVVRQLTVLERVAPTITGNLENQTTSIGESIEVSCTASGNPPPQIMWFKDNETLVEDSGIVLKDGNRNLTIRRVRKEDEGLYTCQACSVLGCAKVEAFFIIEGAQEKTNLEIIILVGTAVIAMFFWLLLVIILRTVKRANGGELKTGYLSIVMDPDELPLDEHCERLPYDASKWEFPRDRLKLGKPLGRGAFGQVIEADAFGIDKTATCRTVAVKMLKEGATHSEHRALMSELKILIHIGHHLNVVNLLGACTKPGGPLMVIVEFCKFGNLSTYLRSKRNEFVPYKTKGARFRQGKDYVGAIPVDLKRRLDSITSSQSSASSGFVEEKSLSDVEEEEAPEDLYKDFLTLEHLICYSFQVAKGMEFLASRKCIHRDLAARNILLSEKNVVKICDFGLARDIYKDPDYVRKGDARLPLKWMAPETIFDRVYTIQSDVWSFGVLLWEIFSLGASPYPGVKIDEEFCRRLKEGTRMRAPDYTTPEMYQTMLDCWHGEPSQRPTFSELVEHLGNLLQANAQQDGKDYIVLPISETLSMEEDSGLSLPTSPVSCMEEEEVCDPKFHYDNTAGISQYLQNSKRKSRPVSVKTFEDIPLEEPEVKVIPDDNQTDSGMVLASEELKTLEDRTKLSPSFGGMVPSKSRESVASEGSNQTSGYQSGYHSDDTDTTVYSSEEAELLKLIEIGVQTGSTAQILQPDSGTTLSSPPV

As for `N#Cc1nnnn1Cc1ccc(Sc2ccnc(Nc3ccc(N4CCOCC4)cc3)n2)cc1` [Compound 155, 1-(4-(2-(4-morpholinophenylao)pyrimidin-4-ylthio)benzyl)-1H-tetrazole-5-carbonitrile], the GI50 in experiment [1] is under 20000 nM. Further, the inhibition at 0.5 µM was found to be 81% in experiment [2] and 98% in experiment [3].
Taken in the same sequence, the figures for `N#Cc1nnn(Cc2ccc(Sc3ccnc(Nc4ccc(N5CCOCC5)cc4)n3)cc2)n1` [Compound 156, 2-(4-(2-(4-morpholinophenylao)pyrimidin-4-ylthio)benzyl)-2H-tetrazole-5-carbonitrile] were under 5000 nM, 81% and 97%.
Take `C=CC(=O)N(C)c1ccc(Sc2nc(Nc3ccc(N4CCOCC4)cc3)ncc2C)cc1` [Compound 173, N-methyl-N-(4-(5-methyl-2-(4-morpholinophenylao)pyrimidin-4-ylthio)phenyl)acrylamide]: the GI50 in experiment [1] was under 1000 nM. Further, the inhibition at 0.5 µM in experiment [2] was 93%; in experiment [3], 96%.
Regarding `N#Cc1ncn(Cc2ccc(Sc3ccnc(Nc4ccc(N5CCOCC5)cc4)n3)cc2)c1C#N` [Compound 201, 1-(4-(2-(4-morpholinophenylao)pyrimidin-4-ylthio)benzyl)-1H-imidazole-4,5-dicarbonitrile], the GI50 in experiment [1] was under 5000 nM. For the same compound, the inhibition at 0.5 µM in experiment [2] and in experiment [3] was 100% each time.
`Cc1cnc(Nc2ccc(N3CCOCC3)cc2)nc1Sc1ccc(N2C(=O)CSCC2=O)cc1` [Compound 231, 4-(4-(5-methyl-2-(4-morpholinophenylao)pyrimidin-4-ylthio)phenyl)thiomorpholine-3,5-dione]: the GI50 in experiment [1] was under 20000 nM. Besides, the inhibition at 0.5 µM in experiment [2] stood at 91%; in experiment [3], 99%.
Taken in the same sequence, the figures for `C=CC(=O)Nc1ccc(Sc2nc(Nc3ccc(N4CCN(C)CC4)cc3)ncc2C)cc1` [Compound 239, N-(4-(5-methyl-2-(4-(4-methylpiperazin-1-yl)phenylao)pyrimidin-4-ylthio)phenyl)acrylamide] were under 1000 nM, 97% and 96%.
Taken in the same sequence, the figures for `C=CC(=O)Nc1ccc(Sc2nc(Nc3ccc(OC)c(OC)c3)ncc2C)cc1` [Compound 241, N-(4-(2-(3,4-dimethoxyphenylao)-5-methylpyrimidin-4-ylthio)phenyl)acrylamide] were under 1000 nM, 88% and 97%.
The like results for `C=CC(=O)Nc1ccc(Sc2nc(Nc3cccc(N4CCN(C)CC4)c3)ncc2C)cc1` [Compound 243, N-(4-(5-methyl-2-(3-(4-methylpiperazin-1-yl)phenylao)pyrimidin-4-ylthio)phenyl)acrylamide] were, in that order, under 1000 nM, 97% and 97%.
For `C=CC(=O)Nc1ccc(Sc2nc(Nc3ccc(C4CCN(C)CC4)cc3)ncc2C)cc1` [Compound 246, N-(4-(5-methyl-2-(4-(1-methylpiperidin-4-yl)phenylao)pyrimidin-4-ylthio)phenyl)acrylamide], the GI50 in experiment [1] was under 1000 nM. The results for the inhibition at 0.5 µM in experiment [2] and in experiment [3] were 97% and 93%, respectively.
The like results for `C=CC(=O)Nc1ccc(Sc2nc(Nc3ccc(N4CCOCC4)c(OC)c3)ncc2C)cc1` [Compound 248, N-(4-(2-(3-methoxy-4-morpholinophenylao)-5-methylpyrimidin-4-ylthio)phenyl)acrylamide] were, in that order, under 1000 nM, 80% and 95%.
Taken in the same sequence, the figures for `C=CC(=O)Nc1ccc(Sc2nc(Nc3cccc(N4CCOCC4)c3)ncc2F)cc1` [Compound 267, N-(4-(5-fluoro-2-(3-morpholinophenylao)pyrimidin-4-ylthio)phenyl)acrylamide] were under 1000 nM, 94% and 94%.
Taken in the same sequence, the figures for `C=CC(=O)Nc1ccc(Sc2nc(Nc3cccc(CO)c3)ncc2C)cc1` [Compound 280, N-(4-(2-(3-(hydroxymethyl)phenylao)-5-methylpyrimidin-4-ylthio)phenyl)acrylamide] were under 1000 nM, 97% and 97%.
As to `C=CC(=O)Nc1ccc(Sc2nc(Nc3ccc(NS(C)(=O)=O)cc3)ncc2C)cc1` [Compound 285, N-(4-(5-methyl-2-(4-(methylsulfonamido)phenylao)pyrimidin-4-ylthio)phenyl)acrylamide], the GI50 in experiment [1] is under 1000 nM. Besides, the inhibition at 0.5 µM in experiment [2] is 91%; in experiment [3], 94%.
Taken in the same sequence, the figures for `C=CC(=O)Nc1ccc(Sc2nc(Nc3ccc(N4CCC(CO)CC4)cc3)ncc2C)cc1` [Compound 286, N-(4-(2-(4-(4-(hydroxymethyl)piperidin-1-yl)phenylao)-5-methylpyrimidin-4-ylthio)phenyl)acrylamide] were under 1000 nM, 74% and 94%.
As to `C=CC(=O)Nc1ccc(Sc2nc(Nc3cccc(NS(C)(=O)=O)c3)ncc2C)cc1` [Compound 288, N-(4-(5-methyl-2-(3-(methylsulfonamido)phenylao)pyrimidin-4-ylthio)phenyl)acrylamide], the GI50 in experiment [1] is under 1000 nM. The values for the inhibition at 0.5 µM in experiment [2] and in experiment [3] were 98% and 94%, respectively.
For the compound `C=CC(=O)Nc1ccc(Sc2nc(Nc3ccc(OCCN4CCOCC4)cc3)ncc2C)cc1` [Compound 290, N-(4-(5-methyl-2-(4-(2-morpholinoethoxy)phenylao)pyrimidin-4-ylthio)phenyl)acrylamide], the GI50 in experiment [1] is under 1000 nM. The inhibition at 0.5 µM is 94% in experiment [2] and 95% in experiment [3].
As for `C=CC(=O)Nc1ccc(Sc2nc(Nc3ccc(OCCCN(CC)CC)cc3)ncc2C)cc1` [Compound 291, N-(4-(2-(4-(3-(diethylao)propoxy)phenylao)-5-methylpyrimidin-4-ylthio)phenyl)acrylamide], in experiment [1], the GI50 was under 1000 nM. Further, the values for the inhibition at 0.5 µM in experiment [2] and in experiment [3] were 95% and 96%, respectively.
The like results for `C=CC(=O)Nc1ccc(Sc2nc(Nc3ccc(OC)c(NS(C)(=O)=O)c3)ncc2C)cc1` [Compound 293, N-(4-(2-(4-methoxy-3-(methylsulfonamido)phenylao)-5-methylpyrimidin-4-ylthio)phenyl)acrylamide] were, in that order, under 1000 nM, 55% and 95%.
The like results for `O=C(/C=C/Cl)Nc1cccc(Sc2ccnc(Nc3ccc(N4CCOCC4)cc3)n2)c1` [Compound 340, (E)-3-chloro-N-(3-(2-(4-morpholinophenylao)pyrimidin-4-ylthio)phenyl)acrylamide] were, in that order, under 1000 nM, 97% and 94%.
With `C=CC(=O)Nc1ccc(Sc2ccnc(Nc3ccc(S(N)(=O)=O)c(OC)c3)n2)cc1` [Compound 374, N-(4-(2-(3-methoxy-4-sulfamoylphenylao)pyrimidin-4-ylthio)phenyl)acrylamide], the GI50 in experiment [1] was under 1000 nM. The inhibition at 0.5 µM in experiment [2] and in experiment [3] was 96% each time.
